Measurements from patent US7045531B1, “Composition comprising a metal chelator and a method of treating amyloidosis by administering the metal chelator” (The General Hospital Corporation, priority 1997, dated 2006).
Like-named read-outs stand apart in the source and are kept apart here.

How the values were obtained:
[1] = target: T1, Aβ1-42 (Homo sapiens, UniProt P05067); assay: Modulation of SDS-resistant polymerization of Aβ1-42; type: biochemical; conditions: TCEP 100 μM; with and without Cu^2+; over 3 days
T1 sequence (P05067 672-713 limits assumed): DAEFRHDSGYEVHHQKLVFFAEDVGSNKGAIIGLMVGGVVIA
Protocol: Solution concentrations of metal ion and H2O2 were 30 μM and 100 μM, respectively. […] Argon was continuously bubbled through the buffer for 2 h (at 20° C.) before the remainder of the incubation components were added.
It is possible that the decreased polymerization may be due to chelation of Cu^2+ by BC, however given the low binding affinity of BC for Cu^2+ compared with Aβ, it seems likely that the chelation of […] by BC prevents it from inducing SDS-resistant Aβ polymerization. Therefore, Aβ may undergo a hydroxyl radical modification that promotes its assembly into SDS-resistant polymers.

[2] = test system: AD; conditions: twice daily deep intramuscular injections; cited from earlier work
[3] = target: T1, Aβ1-42; assay: Effect of metal chelators on H2O2 production from Aβ1-42; type: biochemical; conditions: chelator 200 μM; 1 μM Fe^3+
[4] = test system: Cu^2+-induced Aβ1-40 or Aβ1-42 SDS-resistant polymers; assay: Dissolution of in vitro generated SDS-resistant Aβ polymers; type: biochemical, human; conditions: polymers generated at pH 7.4
[5] = target: Aβ1-40 (Homo sapiens, UniProt P05067); conditions: pH 7.4; EDTA chelation
Sequence of Aβ1-40 (P05067 672-711 limits assumed): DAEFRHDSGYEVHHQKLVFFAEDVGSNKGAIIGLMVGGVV

[6] = Metal reduction assay, Fe^3+ (BP indicator); type: biochemical; conditions: Fe^3+ 10 μM; PBS pH 7.4; 1 hr, 37° C.
Protocol: (§1) The metal reduction assay was performed using a 96-well microtiter plate (Costar) based upon a modification of established protocols (Landers, J. W., et al., Amer. Clin. Path. 29:590 (1958); Landers. J. W. et al., Clinica Chimica Acta 3:329 (1958)). Polypeptides (10 μM) or Vitamin C (100 μM), metal ions (10 μM, Fe(NO3)3 or Cu(NO3)2), and reduced metal ion indicators, bathophenanthrolinedisulfonic acid (BP, for Fe^2+, Sigma, 200 μM) or bathocuproinedisulfonic acid (BC, for Cu^+, Sigma, […]), were coincubated in phosphate buffered saline (PBS), pH 7.4, for 1 hr at 37° C. The metal ion solutions were prepared by direct dilution in the buffer from their aqueous stocks purchased from National Institute of Standards and Technology (NIST). Absorbances were then measured at 536 nm (Fe^2+-BP complex) and 483 nm (Cu^+-BC complex), respectively, using a 96-well plate reader (SPECTRAmax 250, Molecular Devices, Calif.). In control samples, both metal ion and indicator were present to determine the background buffer signal. As a further control, both metal ion and peptide were present in the absence of indicator to estimate the contribution of light scattering due to turbidity to the absorbance reading at these wavelengths. The net absorbances (ΔA) at 536 nm or 483 nm were obtained by deducting the absorbances from these controls from the absorbances generated by the peptide and metal in the presence of the respective indicator.
The concentrations of reduced metal ions (Fe^2+ or Cu^+) were quantified based on the formula: Fe^2+ or Cu^+ (˜M)=A*10^6/(L*M), where L is the measured equivalent vertical pathlength for a well of 300 μL volume as described in the instrument's specifications manual (0.856 cm for Fe^2+; 1.049 cm for Cu^+); M is the known molecular absorbance (M^−1 cm^−1) which is 7124 (for Fe^2+-BP complex) or 2762 (for Cu^+-BC complex).

[7] = Cu^+ generation / metal reduction (Example 2); type: biochemical; conditions: 10 μM in PBS; Cu^2+ 10 μM; 30 minutes, 37° C.
Protocol: This method is modified from a protocol assaying serum copper and iron (Landers, J. W., et al., Amer. J. Clin. Path. 29:590 (1958)). It is based on the fact that there are optimal visible absorption wavelengths of 483 nm and 535 nm for Cu^+ complexed with bathocuproinedisulfonic (BC) anion and Fe^2+ coordinated by bathophenanthrolinedisulfonic (BP) anion, respectively.
Aβ (10 μM in PBS, pH 7.4 or 6.8, as shown) was incubated for 30 minutes (37° C.) in the presence of Cu^2+ 10 μM±Zn^2+ 10 μM). Cu^+ levels (n=3, ±SD) were assayed against a standard curve.

[8] = cited from earlier work; for Kd: physiological pH
[9] = TBARS assay of OH. production by peptides; type: biochemical; conditions: 1 μM Fe^3+ or Cu^2+
Protocol: The Thiobarbituric Acid-Reactive Substance (TBARS) assay for incubation mixtures with Fe^3+ or Cu^2+ was performed in a 96-well microtiter format modified from established protocols (Gutteridge et al. Biochim. Biophys. Acta 759: 38–41 (1983)). Aβ peptide species (10 μM) or Vitamin C (100 μM), were incubated with Fe^3+ or Cu^2+ (1 μM) and deoxyribose (7.5 mM, Sigma) in PBS, pH 7.4. Following incubation (37° C., 1 hour), glacial (17 M) acetic acid and 2-thiobarburic acid (1%, w/v in 0.05 M NaOH, Sigma) were added and heated (100° C., 10 min). The final mixtures were placed on ice for 1–3 minutes before absorbances at 532 nm were measured. The net absorbance change for each sample were obtained by deducting the absorbance from a control sample consisting of identical chemical components except for the Vitamin C or Aβ peptides.

[10] = Metal reduction assay, Cu^2+ (BC indicator); type: biochemical; conditions: Cu^2+ 10 μM; PBS pH 7.4; 1 hr, 37° C.
Protocol: as §1, with “Polypeptides” for “The metal reduction assay was performed using a 96-well microtiter plate (Costar) based upon a modification of established protocols (Landers, J. W., et al., Amer. Clin. Path. 29:590 (1958); Landers. J. W. et al., Clinica Chimica Acta 3:329 (1958)). Polypeptides”

[11] = SDS-resistant polymerization of Aβ peptides with Cu^2+ (Western blot, image analysis); type: biochemical; conditions: after 5 d; for conversion of the monomer to dimer / conversion of the monomer to trimer: Cu^2+ 30 μM
Protocol: Following incubation (37° C.), aliquots of each reaction (2 ng peptide) were collected at 0 d, 1 d, 3 d and 5 d and western blotted using anti-Aβ monoclonal antibody 8E10 (FIG. 9). Migration of the molecular size markers are indicated (kDa). […] It should be noted that other means of visualizing and/or determining the presence or absence of polymerization other than western blot analysis may be used. Such other means include but are not limited to density sedimentation by centrifugation of the samples.
As above, electronic images captured using the Fluoro-S Image Analysis System (Bio-Rad, Hercules, Calif.) were analyzed using Multi-Analyst Software (Bio-Rad, Hercules, Calif.).
(0–30 μM) at pH 7.4 and 6.6 and the samples analyzed by Western blot and the signal quantitated using the Fluoro-S Image Analysis System (Bio-Rad, Hercules, Calif.) as previously described.

[12] = Aβ metal-capture ELISA, competition analysis of binding to Cu^2+; conditions: pH 7.4; read-out: Kd, high affinity saturable Cu^2+ binding site
Protocol: Aβ1-40 (1.5 ng/well) was incubated (37° C., 2 hr) in the wells of Cu^2+ coated microtiter plates (Xenopore, Hawthorne, N.J.) with increasing concentrations of Cu^2+ (1–100 nM) as described by Moir et al., Journal of Biological Chemistry (submitted). Remaining ligand binding sites on well surfaces were blocked with 2% gelatin in tris-buffered saline (TBS) (3 hr at 37° C.) prior to overnight incubation at room temperature with the anti-Aβ mAb 6E10 (Senetek, Maryland Heights, Mich.). Anti-mouse IgG coupled to horseradish peroxidase was then added to each well and incubated for 3 hr at 37° C. Bound antibodies were detected by a 30 minute incubation with stable peroxidase substrate buffer/3,3′,5,5′-Tetramethyl benzidine (SPSB/TMB) buffer, followed by the addition of 2 M sulfuric acid and measurement of the increase in absorbance at 450 nm.
All assays were performed in triplicate and are means±SD, n=3. […] The affinity of Aβ for Cu^2+ is higher than that for Zn^2+ (Bush, A. I., et al., J. Biol. Chem. 269: 12152 (1994)). […] This is supported by the fact that there is both a pH sensitive and insensitive interaction with different metal ions.

For `Cl.O=C(O)CCP(CCC(=O)O)CCC(=O)O` [TCEP, Tris(2-Carboxyethyl)-Phosphine Hydrochloride], the “effect on level of polymerization of Aβ1-42” value [1] was “significantly reduced the level of polymerization”.

In the case of `CC(=O)N(O)CCCCCNC(=O)CCC(=O)N(O)CCCCCNC(=O)CCC(=O)N(O)CCCCCN` [DFO, Desferrioxamine], the side effects [2] is given as “anaemia” and the “effect on H2O2 formation by Aβ1-42” value [3] is given as “no effect”.

In the case of `O=C(O)CN(CCN(CC(=O)O)CC(=O)O)CC(=O)O` [EDTA, ethylenediaminetetra acetic acid], the “effect on amount of Aβ1-40 or Aβ1-42 SDS-resistant polymers” value [4] is reported as “less effective” and the “reversibility of Cu^2+-induced Aβ1-40 aggregation” value [5] is reported as “reversible”.

For “rat Aβ1-40: Rat/mouse Aβ1-40 with substitutions R5G, Y10F, H13R (DAEFGHDSGFEVRHQKLVFFAEDVGSNKGAIIGLMVGGVV; Amyloid-beta protein 40; UniProt P12023 672-711, looked up, fragment)”, the “available Fe^3+ reduced” value [6] is listed as “did not significantly facilitate the reduction of Fe^3+”, the “Cu^2+ reduction / redox reactivity” value [7] is listed as “does not manifest the redox reactivity” and the “KA, zinc, single binding site” value [8] is listed as 3.8 µM. For the same compound, the OH. generation [9] was “did not generate OH” and the “available Cu^2+ reduced” value [10] was “reduced no Cu^2+”.

With Aβ1-40: synthetic human Aβ1-40 peptide the “conversion of the monomer to dimer” value ([11]; pH 6.6) was 29%, the “conversion of the monomer to trimer” value ([11]; pH 6.6) was 2% and the “conversion of the monomer to dimer” value ([11]; pH 7.4) was 42%. The “conversion of the monomer to trimer” value ([11]; pH 7.4) was 9%, the “peptide converted to the SDS-resistant dimer” value ([11]; no metal, pH 6.6, 7.4 or 9.0) was “Less than 4%” and the “available Fe^3+ reduced” value [6] was 12%. The Kd ([8]; read-out: KD, high affinity zinc binding, 1:1 (Zn^2+:Aβ)) was 0.107 µM, the Kd ([8]; read-out: KD, low affinity zinc binding, 2:1 stoichiometry) was 5.2 µM and the “available Cu^2+ reduced” value [10] was 60%. For the same compound, the Kd [12] was 0.0009 µM.
